Values quoted from earlier work in PubChem BioAssay AID1259409 (Chemical Carcinogenesis Research Information System (CCRIS), 2018).

Tested on: rodent chemically induced tumor inhibition, incidence and multiplicity
Assay: CCRIS tumor inhibitor studies

| SMILES | tumour outcome (control, treated, inhibition, significance) (Carcinogen: 4-(METHYLNITROSAMINO)-1-(3-PYRIDYL)-1-BUTANONE, 64091-91-4, Dose [Inhibitor]: 0, 560 PPM IN DRINKING WATER FOR 13 WK BEGINNING 2 WK PRIOR TO CARCINOGEN TREATMENT (STUDY DURATION: 18 WK), Route [Inhibitor]: ORAL, Species: MOUSE, Strain/Sex: STRAIN-A/FEMALE, Target Tissue: Type of Lesion: LUNG: ADENOMA, Dose [Carcinogen]: 11.65 MG/KG 3/WK FOR 10 WK, Promoter: NONE USED) | tumour outcome (control, treated, inhibition, significance) (Carcinogen: 4-NITROQUINOLINE-N-OXIDE (56-57-5), Dose [Inhibitor]: 0.05% IN DIET FOR 25 WKS (STUDY DURATION: 25 WKS), Route [Inhibitor]: DIET, Species: MOUSE, Strain/Sex: DDY/MALE (10,10)/(10,?), Target Tissue: Type of Lesion: LUNG, Dose [Carcinogen]: 10 MG/KG BW ONCE, Promoter: CACODYLIC ACID (75-60-5)) | tumour outcome (control, treated, inhibition, significance) (Carcinogen: 7,12-DIMETHYLBENZ[A]ANTHRACENE, 57-97-6, Dose [Inhibitor]: 0, 0.5% (81% EGCG) IN DIET OF RATS WITH TUMORS AT 13 WK POST CARCINOGEN DOSE (STUDY DURATION: 36 WK), Route [Inhibitor]: ORAL, Species: RAT, Strain/Sex: SPRAGUE-DAWLEY/FEMALE, Target Tissue: Type of Lesion: MAMMARY GLAND: CARCINOMA, Dose [Carcinogen]: 50 MG/KG BW ONCE, Promoter: NONE USED) | tumour outcome (control, treated, inhibition, significance) (Carcinogen: 7,12-DIMETHYLBENZ[A]ANTHRACENE, 57-97-6, Dose [Inhibitor]: 0, 0.5% (81% EGCG) IN DIET OF RATS WITHOUT TUMORS AT 13 WK POST CARCINOGEN DOSE (STUDY DURATION: 36 WK), Route [Inhibitor]: ORAL, Species: RAT, Strain/Sex: SPRAGUE-DAWLEY/FEMALE, Target Tissue: Type of Lesion: MAMMARY GLAND: CARCINOMA, Dose [Carcinogen]: 50 MG/KG BW ONCE, Promoter: NONE USED) | tumour outcome (control, treated, inhibition, significance) (Carcinogen: 7,12-DIMETHYLBENZ[A]ANTHRACENE, 57-97-6, Dose [Inhibitor]: 0, 0.5% POLYPHEN E (58.4% EGCG) IN DIET OF RATS WITH TUMORS AT 13 WK POST CARCINOGEN DOSE (STUDY DURATION: 36 WK), Route [Inhibitor]: ORAL, Species: RAT, Strain/Sex: SPRAGUE-DAWLEY/FEMALE, Target Tissue: Type of Lesion: MAMMARY GLAND: CARCINOMA, Dose [Carcinogen]: 50 MG/KG BW ONCE, Promoter: NONE USED) | tumour outcome (control, treated, inhibition, significance) (Carcinogen: 7,12-DIMETHYLBENZ[A]ANTHRACENE, 57-97-6, Dose [Inhibitor]: 0, 5 UMOL IN 0.2 ML ACETONE 1/D FOR 7 D PRIOR TO CARCINOGEN DOSE (STUDY DURATION: 16 WK), Route [Inhibitor]: DERMAL, Species: MOUSE, Strain/Sex: SENCAR/FEMALE, Target Tissue: Type of Lesion: SKIN: TUMOR, Dose [Carcinogen]: 10 NMOL IN 0.2 ML ACETONE ONCE, Promoter: 12-O-TETRADECANOYLPHORBOL-13-ACETATE, 16561-29-8) | tumour outcome (control, treated, inhibition, significance) (Carcinogen: N-ETHYL-N'-NITRO-N-NITROSGUANIDINE, 4245-77-6, Dose [Inhibitor]: 0, 0.005% IN DIET FOR 12 WK BEGINNING POST CARCINOGEN TREATMENT (STUDY DURATION: 16 WK), Route [Inhibitor]: ORAL, Species: MOUSE, Strain/Sex: C57BL/MALE, Target Tissue: Type of Lesion: DUODENUM: TUMOR, Dose [Carcinogen]: 100 MG/L IN DRINKING WATER FOR 4 WK, Promoter: NONE USED) | tumour outcome (control, treated, inhibition, significance) (Carcinogen: N-ETHYL-N'-NITRO-N-NITROSOGUANIDINE, 4245-77-6, Dose [Inhibitor]: 0, 0.005% IN DIET FOR 12 WK BEGINNING POST CARCINOGEN TREATMENT (STUDY DURATION: 16 WK), Route [Inhibitor]: ORAL, Species: MOUSE, Strain/Sex: C57BL/MALE, Target Tissue: Type of Lesion: DUODENUM: TUMOR, Dose [Carcinogen]: 100 MG/L IN DRINKING WATER FOR 4 WK, Promoter: NONE USED) | tumour outcome (control, treated, inhibition, significance) (Carcinogen: N-ETHYL-N'-NITRO-N-NITROSOGUANIDINE, 4245-77-6, Dose [Inhibitor]: 0.005% (0.15 MG/MOUSE/D) IN DRINKING WATER FOR 12 WK POST CARCINOGEN DOSE (STUDY DURATION: 16 WK), Route [Inhibitor]: ORAL, Species: MOUSE, Strain/Sex: C57BL/MALE, Target Tissue: Type of Lesion: DUODENUM: TUMOR, Dose [Carcinogen]: 100 MG/L DRINKING WATER FOR 4 WK, Promoter: NONE USED) | tumour outcome (control, treated, inhibition, significance) (Carcinogen: N-METHYL-N'-NITRO-N-NITROSOGUANIDINE, 70-25-7, Dose [Inhibitor]: 0, 0.05% IN DIET FOR 16 WK BEGINNING POST CARCINOGEN TREATMENT (STUDY DURATION: 44 WK), Route [Inhibitor]: ORAL, Species: RAT, Strain/Sex: WISTAR/MALE, Target Tissue: Type of Lesion: STOMACH: TUMOR, Dose [Carcinogen]: 80 MG/L IN DRINKING WATER FOR 28 WK, Promoter: NONE USED) | tumour outcome (control, treated, inhibition, significance) (Carcinogen: N-METHYL-N'-NITRO-N-NITROSOGUANIDINE, 70-25-7, Dose [Inhibitor]: 0, 0.05% IN DRINKING WATER FOR 15 WK (STUDY DURATION: 44 WK), Route [Inhibitor]: ORAL, Species: RAT, Strain/Sex: WISTAR/MALE, Target Tissue: Type of Lesion: GLANDULAR STOMACH: TUMOR, Dose [Carcinogen]: 80 MG/L IN DRINKING WATER FOR 28 WK, Promoter: NONE USED) | tumour outcome (control, treated, inhibition, significance) (Carcinogen: N-METHYL-N'-NITRO-N-NITROSOGUANIDINE, 70-25-7, Dose [Inhibitor]: 0, 0.05% IN DRINKING WATER FOR 15 WK BEGINNING POST CARCINOGEN TREATMENT (STUDY DURATION: 44 WK), Route [Inhibitor]: ORAL, Species: RAT, Strain/Sex: WISTAR/MALE, Target Tissue: Type of Lesion: GLANDULAR STOMACH: TUMOR, Dose [Carcinogen]: 80 MG/L IN DRINKING WATER FOR 28 WK, Promoter: NONE USED) | tumour outcome (control, treated, inhibition, significance) (Carcinogen: NONE USED, Dose [Inhibitor]: 0, 0.05% IN DRINKING WATER AD LIBITUM FOR 58 WK (STUDY DURATION: 65 WK), Route [Inhibitor]: ORAL, Species: MOUSE, Strain/Sex: C3H/HENCRJ/MALE, Target Tissue: Type of Lesion: LIVER: HEPATOMA, Promoter: NONE USED) | tumour outcome (control, treated, inhibition, significance) (Carcinogen: NONE USED, Dose [Inhibitor]: 0, 0.1% IN DRINKING WATER AD LIBITUM FOR 58 WK (STUDY DURATION: 65 WK), Route [Inhibitor]: ORAL, Species: MOUSE, Strain/Sex: C3H/HENCRJ/MALE, Target Tissue: Type of Lesion: LIVER: HEPATOMA, Promoter: NONE USED) | tumour outcome (control, treated, inhibition, significance) (Carcinogen: 4-(METHYLNITROSAMINO)-1-(3-PYRIDYL)-1-BUTANONE, 64091-91-4, Dose [Inhibitor]: 0, 5 UMOL IN 0.1 ML CORN OIL ONCE 2 HR PRIOR TO CARCINOGEN DOSE (STUDY DURATION: 16 WK), Route [Inhibitor]: GAVAGE, Species: MOUSE, Strain/Sex: STRAIN-A/FEMALE, Target Tissue: Type of Lesion: LUNG: ADENOMA, Dose [Carcinogen]: 10 UMOL IN 0.1 ML SALINE ONCE, Promoter: NONE USED) |
| --- | --- | --- | --- | --- | --- | --- | --- | --- | --- | --- | --- | --- | --- | --- | --- |
| O=C(O[C@@H]1Cc2c(O)cc(O)cc2O[C@@H]1c1cc(O)c(O)c(O)c1)c1cc(O)c(O)c(O)c1 | 100%, 100%, 0%, not significant | 100%, 70%, 30%, not calculated | 14/14 (100%), 14/14 (100%), 0%, not significant | 11/14 (79%), 12/14 (86%), -9%, not significant | 14/14 (100%), 14/14 (100%), 0%, not significant | 100%, 100%, 0%, not significant | 63%, 20%, 68%, p<0.001 | 63%, 20%, 68%, p<0.001 | 10/16 (63%), 3/15 (20%), 68%, p<0.001 | 62%, 31%, 50%, p<0.05 | 21/34 (62%), 11/35 (31%), 50%, p<0.05 | 21/34 (62%), 11/35 (31%), 50%, p<0.05 | 15/18 (83%), 14/25 (56%), 33%, p<0.05 | 15/18 (83%), 12/23 (52%), 37%, p<0.05 | – |
| C#CCCCc1ccccc1 | – | – | – | – | – | – | – | – | – | – | – | – | – | – | 100%, 25%, 75%, p<0.01 |
